Experiments:
Rattus norvegicus [1] = species on record: Rattus norvegicus; test: Increase in uptake in spleen of cycloheximide-treated Sprague-Dawley rat relative to control after 1 hr; type: ADME, organism-based; settings: in vivo
Rattus norvegicus [2] = species on record: Rattus norvegicus; test: Increase in uptake in liver of cycloheximide-treated Sprague-Dawley rat relative to control after 1 hr; type: ADME, organism-based; settings: in vivo
Rattus norvegicus [3] = species on record: Rattus norvegicus; test: Effect on uptake in fat of cycloheximide-treated Sprague-Dawley rat relative to control after 1 hr; type: ADME, organism-based, Adipose tissue; settings: in vivo
Caspase-1 = target: T1, Caspase-1 (Homo sapiens, UniProt P29466); test: Inhibition of human recombinant caspase 1
T1 sequence (P29466 whole entry): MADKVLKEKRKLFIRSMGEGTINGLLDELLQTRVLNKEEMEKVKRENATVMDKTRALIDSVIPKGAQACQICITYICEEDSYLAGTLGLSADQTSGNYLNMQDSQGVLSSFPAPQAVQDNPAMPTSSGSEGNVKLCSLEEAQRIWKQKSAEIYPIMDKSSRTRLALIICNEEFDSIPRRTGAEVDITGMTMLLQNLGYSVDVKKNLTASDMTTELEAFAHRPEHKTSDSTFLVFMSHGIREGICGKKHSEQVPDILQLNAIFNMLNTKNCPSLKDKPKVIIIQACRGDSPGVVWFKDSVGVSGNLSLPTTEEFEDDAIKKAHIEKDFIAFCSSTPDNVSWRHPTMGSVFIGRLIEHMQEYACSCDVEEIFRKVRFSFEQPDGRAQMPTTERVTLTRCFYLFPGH

Caspase-8 = Caspase-8 (Homo sapiens, UniProt Q14790); test: Inhibition of human recombinant caspase 8
Chain of Caspase-8 (Q14790 217-374 limits assumed): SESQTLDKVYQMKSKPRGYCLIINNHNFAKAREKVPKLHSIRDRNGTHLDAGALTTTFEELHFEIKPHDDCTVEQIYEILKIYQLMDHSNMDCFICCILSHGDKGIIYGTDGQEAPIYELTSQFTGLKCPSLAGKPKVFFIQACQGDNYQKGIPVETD
Chain of Caspase-8 (Q14790 385-479 limits assumed): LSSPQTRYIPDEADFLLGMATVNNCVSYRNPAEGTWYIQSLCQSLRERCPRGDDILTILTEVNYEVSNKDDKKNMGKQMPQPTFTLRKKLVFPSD

Caspase-6 = target: T2, Caspase-6 (Homo sapiens, UniProt P55212); test: Inhibition of human recombinant caspase 6
T2 sequence (P55212 whole entry): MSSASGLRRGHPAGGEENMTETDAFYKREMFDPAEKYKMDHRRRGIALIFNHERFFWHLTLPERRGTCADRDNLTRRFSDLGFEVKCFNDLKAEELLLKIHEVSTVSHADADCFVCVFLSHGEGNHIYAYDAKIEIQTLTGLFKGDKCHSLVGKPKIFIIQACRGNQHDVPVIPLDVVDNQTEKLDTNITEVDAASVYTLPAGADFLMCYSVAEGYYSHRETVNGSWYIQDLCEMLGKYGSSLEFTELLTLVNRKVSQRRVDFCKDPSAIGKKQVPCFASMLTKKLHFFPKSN

Caspase-3 = target: T3, Caspase-3 (Homo sapiens, UniProt P42574); test: Inhibition of human recombinant caspase 3
T3 sequence (P42574 whole entry): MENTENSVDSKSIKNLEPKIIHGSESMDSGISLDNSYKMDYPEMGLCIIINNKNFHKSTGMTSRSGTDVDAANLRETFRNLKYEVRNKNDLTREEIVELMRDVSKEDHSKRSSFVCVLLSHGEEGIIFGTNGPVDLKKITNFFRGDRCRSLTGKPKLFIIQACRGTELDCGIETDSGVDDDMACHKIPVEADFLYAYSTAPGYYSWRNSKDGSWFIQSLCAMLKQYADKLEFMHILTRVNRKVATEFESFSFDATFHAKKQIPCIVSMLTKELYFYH

Row | Compound | Activity (Rattus norvegicus [1]) [%] | Activity (Rattus norvegicus [2]) [%] | Activity (Rattus norvegicus [3]) | IC50 (Caspase-1) [µM] | IC50 (Caspase-8) [µM] | IC50 (Caspase-6) [µM] | IC50 (Caspase-3) [µM]
1 | O=C1C(=O)N(Cc2ccc(OCC[18F])cc2)c2ccc(S(=O)(=O)N3CCC[C@H]3COc3ccccc3)cc21 | 184 | 94 | Not Active | – | – | – | –
2 | O=C1C(=O)N(Cc2ccc(OCCF)cc2)c2ccc(S(=O)(=O)N3CCC[C@H]3COc3ccccc3)cc21 | – | – | – | > 50 | > 50 | 3.7 | 0.0097

Reference: ChEMBL document CHEMBL1146912, “Synthesis, radiolabeling, and in vivo evaluation of an 18F-labeled isatin analog for imaging caspase-3 activation in apoptosis” (Bioorg Med Chem Lett, 2006)
